Laboratory results as given in patent US20240011034A1, “INHIBITION OF miR-29b-3p TO ENHANCE NEURONAL SURVIVAL IN HUNTINGTON'S DISEASE” (Washington University, priority 2022, published 2024).

Key:
[1] = test system: HTT inclusion bodies; assay: HTT inclusion bodies / mHTT aggregation by immunostaining; type: cell-based, human; settings: HD-MSNs, 0.5 μM vs DMSO, PID30
Protocol: (§1) Reprogrammed cells were fixed with 4% paraformaldehyde (Electron Microscopy Sciences, #15710) for 20 min at room temperature (RT), and permeabilized with 0.2% Triton X-100 for 10 min at RT. Cells were blocked with 5% BSA and 1% goat serum in PBS and incubated with primary antibodies at 4° C. overnight, then incubated with secondary antibodies for 1 hr at RT. Cells were incubated with DAPI (Sigma, D-9542) for 5 minutes followed by washing with PBS. Images were captured using a Leica SP5X white light laser confocal system with Leica Application Suite (LAS) Advanced Fluorescence 2.7.3.9723.

[2] = test system: α1-antitrypsin Z variant (ATZ); assay: Immunoblot of steady-state ATZ in HTO/Z cell line model of α1-antitrypsin deficiency; type: cell-based; settings: 24 hr, 0.5 and 2.5 μM vs DMSO (0.5 μM: p=0.003)
Protocol: FIG. 7A-7H show autophagy activator rescues HD-MSNs from degeneration. […] The normalized intensity (bottom) was calculated from immunoblot images for 0.5 μM versus DMSO control (Individual data plotted, n=4; *p=0.003 by t-test; Mean±s.e.m.). FIG. 7C show representative images of p62 and TUBB3-positive cells (top) and quantification of p62 intensity per cell (bottom) at PID26 from multiple healthy control old and HD-MSNs treated with DMSO or 0.5 μM G2-115. Each dot represents one individual's reprogrammed MSN. Scale bars is 20 μm FIG. 7D show representative images of CYTO-ID staining (top) and quantification of CYTO-ID green signals (bottom) at PID26 from multiple healthy control old and HD-MSNs treated with DMSO or 0.5 μM G2-115. Each dot represents one individual's reprogrammed MSN. Scale bar is 20 μm FIG. 7E show representative images (top) and quantification (bottom) of SYTOX-positive cells as a fraction of Hoechst-positive cells in HD-MSN treated with DMSO or different concentration of G2-115 (0.125, 0.25, or 0.5 μM) (n=4). Scale bar is 20 μm. FIG. 7F show quantification of SYTOX-positive cells from multiple healthy control old and HD-MSNs treated with DMSO or 0.5 μM G2-115. […] FIG. 7G show Representative images (left) and quantification (right) of caspase3/7 activation (green) and Annexin V signal (green) from three independent HD-MSN lines treated with DMSO or 0.5 μM G2-115. […]

[3] = test system: reprogrammed MSNs; assay: CYTO-ID assay for accumulated autophagic vacuoles; type: cell-based, human; settings: 0.5 μM vs DMSO, PID26
Excerpt: First, tandem monomeric mCherry-GFP-tagged LC3, previously shown to distinguish prefusion autophagic compartments from mature acidic autolysosomes based on the differential pH sensitivity of GFP versus mCherry, was used. […] CYTO-ID assay, a fluorescence-based live-cell assay for accumulated autophagic vacuoles, and immunostaining of p62/SQSTM1, a marker widely used to monitor autophagic activity due to its binding to LC3 and degradation during autophagy, were further performed. […] The difference in p62 between pre-HD-MSNs and HD-MSNs was also validated by immunoblot assay (FIG. 3I). Because caspase activation has been detected in HD, and cell death-related pathways (apoptosis and caspase) were enriched in the brown module, the levels of caspase activation between pre-HD-MSN and HD-MSNs were compared.

[4] = test system: reprogrammed MSNs; assay: SYTOX assay (neuronal cell death); type: cell-based, human; settings: for SYTOX-positive cells (beneficial effect): 0.5 μM vs DMSO
Protocol: 0.1 μM SYTOX gene nucleic acid stain (Invitrogen, S7020) and 1 μl/mL of Hoechst 33342 (Thermo Scientific, 66249) were added into cell medium. Samples were incubated for at least 30 mins at 37° C. prior to live-cell imaging. Images were taken using Leica DMI 4000B inverted microscope with Leica Application Suite (LAS) Advanced Fluorescence.

[5] = test system: reprogrammed MSNs; assay: tandem mCherry-GFP-LC3 reporter puncta quantification; type: cell-based, human; settings: HD-MSNs, 0.5 μM vs DMSO
Protocol: FUW mCherry-GFP-LC3 used was Addgene plasm id # 110060; http://n2t.net/addgene:110060; RRID:Addgene_110060. The concentrated lentivirus of mCherry-GFP-LC3 was added to reprogrammed MSNs at PID20. For imaging of cells expressing mCherry-GFP-LC3, cells were washed once with PBS, fixed and stained by TUBB3 antibody, after verification of expression of GFP and mCherry by microscopy at PID26. Images were captured using a Leica SP5X white light laser confocal system with Leica Application Suite (LAS) Advanced Fluorescence 2.7.3.9723. For quantification of autophagosome (i.e., mCherry+, GFP+ puncta) and autolysosome (i.e., mCherry+, GFP− puncta) compartments in MSNs from multiple HD patients and control individuals, measurements were performed in cells having at least 3 puncta per cell.

[6] = test system: p62/SQSTM1; assay: p62/SQSTM1 immunostaining and immunoblot; type: cell-based, human; settings: 0.5 μM vs DMSO, PID26
Protocol: as §1
Cells were lysed in 2% SDS buffer. The concentrations of whole-cell lysates were measured using the Pierce BCA protein assay kit (Thermo Scientific, #23227). […]
First, tandem monomeric mCherry-GFP-tagged LC3, previously shown to distinguish prefusion autophagic compartments from mature acidic autolysosomes based on the differential pH sensitivity of GFP versus mCherry, was used. […] CYTO-ID assay, a fluorescence-based live-cell assay for accumulated autophagic vacuoles, and immunostaining of p62/SQSTM1, a marker widely used to monitor autophagic activity due to its binding to LC3 and degradation during autophagy, were further performed. […]

[7] = test system: reprogrammed MSNs; assay: Apoptosis assay in live cells (Caspase-3/7, Annexin V); type: cell-based, human; settings: HD-MSNs, vs DMSO
Protocol: Reprogrammed cells grown in 96-well plates were treated with 1× Essen Bioscience IncuCyte® Caspase-3/7 Green Reagent (final concentration 5 μM) and 1× Essen Bioscience IncuCyte® Annexin V Green or Red Reagent on day 22 or 26. Image scheduling, collection, and analysis were conducted with the IncuCyte® S3 LiveCell Analysis System platform and IncuCyte S3 v2017A software. Treated plates were imaged every two hours for 7 days. At each timepoint, over 2 images were taken per well in brightfield, FITC, and TRITC channels. Images were analyzed for the number of green or red objects per well. For the apoptotic index, the number of green or red objects (i.n., fluorescence cells) divided by phase area (μm2) per well was quantified by the IncuCyte® S3 Live-Cell Analysis System.

O=c1ccc2c(Cl)cc(Cl)cc2[nH]1 [G2-115, 5,7-dichloro-1H-quinolin-2-one] was tested, and the “number of HTT inclusion bodies” value [1] was “reduced”, the “steady-state levels of ATZ” value [2] was “decreased” and the “number of autophagic vacuoles (CYTO-ID signals)” value ([3]; HD-MSNs) was “increased”. The “number of autophagic vacuoles (CYTO-ID signals)” value ([3]; old Ctrl-MSNs) was “increased”, the “HD-MSN survival (reduction of SYTOX signal)” value ([4]; HD-MSN, 0.125, 0.25 or 0.5 μM vs DMSO, treated from PID14 every four days for 16 days) was “promoted HD-MSN survival in a dose-dependent manner” and the “SYTOX-positive cells (beneficial effect)” value ([4]; HD-MSNs from six independent patients) was “consistent in HD-MSNs from six independent patients”. The “SYTOX-positive cells (beneficial effect)” value ([4]; age-matched (old) Ctrl-MSNs versus HD-MSNs) was “specific to HD-MSNs”, the “average number of autolysosomes” value [5] was “increased” and the “average number of autophagosomes” value [5] was “increased”. For the same compound, the p62/SQSTM1 signal ([6]; HD-MSNs) was “decreased”, the p62/SQSTM1 signal ([6]; old Ctrl-MSNs) was “decreased” and the “Annexin V signal” value [7] was “reduced”. The “Caspase 3/7 signal” value [7] was “reduced”.
